The record followed here is US8946282B2, “Indolin-2-one derivatives as protein kinase inhibitors” (Annji Pharmaceutical Co., Ltd., priority 2012, dated 2015).

In series [1] the test system is MV4-11 human acute myelomonocytic leukemia cells. Briefly: anti-proliferation, SRB colorimetric assay, MV4-11. The following applies: concentration required for 50% growth inhibition. Type of series: cell-based. How it is done: HCT116 human colorectal carcinoma cells (Table 3), HepG2 human hepatocellular carcinoma cells (Table 4), and MV4-11 human acute myelomonocytic leukemia cells (Table 5). Cells were treated with the test compound and the concentration required for 50% growth inhibition (IC50) determined by sulfomodamine B (SRB) colorimetric assay.
(In general: Sulforhodamine B stains cellular protein and so reports cell mass.)

The target in the next series is T1, FLT-3 (Homo sapiens, UniProt P36888).
T1 sequence (P36888 27-993): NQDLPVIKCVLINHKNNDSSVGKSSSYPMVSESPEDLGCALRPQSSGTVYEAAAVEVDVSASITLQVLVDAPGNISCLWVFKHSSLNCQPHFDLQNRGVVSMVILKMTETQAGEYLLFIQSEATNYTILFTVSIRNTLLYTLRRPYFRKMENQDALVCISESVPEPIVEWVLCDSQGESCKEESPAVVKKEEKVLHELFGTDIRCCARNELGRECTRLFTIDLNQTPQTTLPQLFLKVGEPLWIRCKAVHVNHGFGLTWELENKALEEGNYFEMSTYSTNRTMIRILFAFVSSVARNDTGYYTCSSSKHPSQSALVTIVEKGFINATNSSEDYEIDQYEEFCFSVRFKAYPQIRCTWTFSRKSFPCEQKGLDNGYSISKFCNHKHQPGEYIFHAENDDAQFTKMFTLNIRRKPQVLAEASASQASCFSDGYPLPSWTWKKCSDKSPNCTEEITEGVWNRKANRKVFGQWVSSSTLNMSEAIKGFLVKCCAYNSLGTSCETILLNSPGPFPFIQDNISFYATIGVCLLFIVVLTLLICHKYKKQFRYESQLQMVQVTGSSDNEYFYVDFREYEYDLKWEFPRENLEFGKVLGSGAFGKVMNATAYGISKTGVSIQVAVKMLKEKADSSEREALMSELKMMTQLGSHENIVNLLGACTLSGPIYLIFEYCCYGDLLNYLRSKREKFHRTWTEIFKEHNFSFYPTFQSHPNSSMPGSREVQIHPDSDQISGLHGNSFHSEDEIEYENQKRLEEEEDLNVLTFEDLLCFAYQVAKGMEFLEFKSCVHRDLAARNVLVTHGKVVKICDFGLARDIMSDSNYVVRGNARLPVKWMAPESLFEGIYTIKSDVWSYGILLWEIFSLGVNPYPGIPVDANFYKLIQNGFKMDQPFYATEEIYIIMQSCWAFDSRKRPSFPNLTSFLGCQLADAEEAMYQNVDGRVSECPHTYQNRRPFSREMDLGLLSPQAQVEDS
The series can be described thus: radioisotope-based P81 filter-binding assay, FLT-3 kinase. The class given is biochemical. The following applies: averaged from two independent dose-response curves; read-out: Enzyme assay IC50 FLT-3. How it is done:
(§1) Compounds of formula (I)-(IV) were evaluated for abilities in inhibiting protein kinases aurora B and FLT-3 activity using radioisotope-based P81 filter-binding assay (Table 1).

For a further series, the target named is aurora B (Homo sapiens, UniProt Q96GD4). The series can be described thus: radioisotope-based P81 filter-binding assay, aurora B kinase. The class given is biochemical. The following applies: for IC50: averaged from two independent dose-response curves, read-out: Enzyme assay IC50 Aur B. As to the method:
as §1

aurora B, sequence (Q96GD4 whole entry): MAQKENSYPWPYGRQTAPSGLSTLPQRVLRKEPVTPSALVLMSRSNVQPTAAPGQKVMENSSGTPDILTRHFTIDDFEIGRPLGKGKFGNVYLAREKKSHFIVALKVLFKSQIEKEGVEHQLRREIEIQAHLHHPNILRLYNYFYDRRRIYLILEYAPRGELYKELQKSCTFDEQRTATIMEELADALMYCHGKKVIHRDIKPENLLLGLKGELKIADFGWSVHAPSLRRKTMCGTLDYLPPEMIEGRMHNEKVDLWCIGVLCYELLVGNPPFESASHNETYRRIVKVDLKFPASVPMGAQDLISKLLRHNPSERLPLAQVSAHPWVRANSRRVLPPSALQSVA

What is called IC50 is the concentration at which inhibition is half-maximal. For the molecule `COc1ccc(-c2c[nH]cc(C(=O)Nc3ccc4c(c3)NC(=O)/C4=C\c3[nH]c(C)c(C(=O)O)c3C)c2=O)cc1` [D142, (Z)-5-((6-(5-(4-methoxyphenyl)-4-oxo-1,4-dihydropyridine-3-carboxamido)-2-oxoindolin-3-ylidene)methyl)-2,4-dimethyl-1H-pyrrole-3-carboxylic acid], the IC50 in series [1] stood at 0.00669 µM; on FLT-3 it was 0.0246 µM; at aurora B, 0.0045 µM.
The term inhibition denotes the change of the read-out against control, counted positive when it falls. A word on the melting point: it is the temperature of the solid-liquid transition. For `COc1ccc(C(=O)NC(=O)Nc2ccc3c(c2)NC(=O)/C3=C\c2ccccn2)cc1` [D20, (Z)-4-methoxy-N-(2-oxo-3-(pyridin-2-ylmethylene)indolin-6-ylcarbamoyl)benzamide], the melting point was 268 to 273 °C (dec.). For the same molecule, the IC50 at FLT-3 was over 1 µM. Also, the inhibition at 1 µM on aurora B (compound at 1.0 μM, mean values (n=2), read-out: percent inhibition of enzyme catalytic activity, Aur B (numbers in parentheses)) came out at 28.7%.
`CN1CCN(C(=O)Nc2ccc3c(c2)NC(=O)/C3=C\c2ccc[nH]2)C1=O` [D80, (Z)—N-(3-((1H-pyrrol-2-yl)methylene)-2-oxoindolin-6-yl)-3-methyl-2-oxoimidazolidine-1-carboxamide]: the melting point is 267 to 272 °C (dec.). Also, on FLT-3, the IC50 worked out at 0.0706 µM. The IC50 on aurora B is 1.1 µM.
Regarding `COc1ccc(C(=O)NC(=O)Nc2ccc3c(c2)NC(=O)/C3=C\c2[nH]c(C)c(C(=O)N3CCOCC3)c2C)c(F)c1` [D66, (Z)—N-(3-((3,5-dimethyl-4-(morpholine-4-carbonyl)-1H-pyrrol-2-yl)methylene)-2-oxoindolin-6-ylcarbamoyl)-2-fluoro-4-methoxybenzamide], the melting point is 273 to 278 °C (dec.). The IC50 at FLT-3 stood at 0.0795 µM. For the same molecule, the IC50 at aurora B was 0.0168 µM.
For `Cc1cccc(C(=O)NC(=O)Nc2ccc3c(c2)NC(=O)/C3=C\c2[nH]c(C)c(CCC(=O)O)c2C)c1` [D40, (Z)-3-(2,4-dimethyl-5-((6-(3-(3-methylbenzoyl)ureido)-2-oxoindolin-3-ylidene)-methyl)-1H-pyrrol-3-yl)propanoic acid], the melting point is 240 to 245 °C (dec.). Besides, at FLT-3, the IC50 amounted to 0.0061 µM. Also, the IC50 on aurora B stood at 0.0019 µM.
For `O=C1Nc2cc(NC(=O)c3cccn(-c4ccc(Cl)c(C(F)(F)F)c4)c3=O)ccc2/C1=C/c1ccc[nH]1` [D109, (Z)—N-(3-((1H-pyrrol-2-yl)methylene)-2-oxoindolin-6-yl)-1-(4-chloro-(3-trifluoromethyl)phenyl)-2-oxo-1,2-dihydropyridine-3-carboxamide], the figures for the IC50 (in series [1]; at FLT-3; on aurora B) were 0.00719 µM, 0.0774 µM and over 1 µM, respectively.
The matching figures for `Cn1cc(C(=O)Nc2ccc3c(c2)NC(=O)/C3=C\c2ccc[nH]2)c(=O)c(-c2ccc(F)cc2)c1` [D138, (Z)—N-(3-((1H-pyrrol-2-yl)methylene)-2-oxoindolin-6-yl)-5-(4-fluorophenyl)-1-methyl-4-oxo-1,4-dihydropyridine-3-carboxamide]: 0.0178 µM, over 1 µM and 0.0946 µM.
As to `O=C1Nc2cc(NC(=O)c3cccn(CCO)c3=O)ccc2/C1=C/c1ccc[nH]1` [D117, (Z)—N-(3-((1H-pyrrol-2-yl)methylene)-2-oxoindolin-6-yl)-1-(2-hydroxyethyl)-2-oxo-1,2-dihydropyridine-3-carboxamide], the melting point was 298 °C (dec.). Moreover, on FLT-3, the half-maximal inhibitory concentration (IC50) is 0.612 µM. Moreover, at aurora B, the half-inhibitory concentration (IC50) amounted to 0.0325 µM.
Molecule `COc1ccc(C(=O)NC(=O)Nc2cc3c(cc2F)/C(=C/c2ccc[nH]2)C(=O)N3)cc1` [D48, (Z)—N-(3-((1H-pyrrol-2-yl)methylene)-5-fluoro-2-oxoindolin-6-ylcarbamoyl)-4-methoxybenzamide] registered a melting point of over 300 °C. For the same molecule, the IC50 on FLT-3 was over 10 µM. Also, at aurora B, the IC50 is 0.0351 µM.
